# Reference: ChEMBL document CHEMBL1201862, “PubChem BioAssay data set” (2004)
#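 Method: 48-hour compound exposure of cells in 96-well plates, five concentrations, linear interpolation of endpoints. Here, GI50 denotes the concentration required for 50% inhibition of growth.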 Calls of active or inactive are those of the source. No stated cut-off is given here; in the data, active = GI50 up to about 1.1 µM and inactive = higher.
# Assays:
# Experiment in all cases: NCI anticancer screen, dose series, 48 h
# SR = test system: SR
# OVCAR-8 = test system: OVCAR-8
# OVCAR-3 = test system: OVCAR-3
# RPMI-8226 = test system: RPMI-8226
# HL-60 = test system: HL-60
# HCT-15 = test system: HCT-15
# SK-MEL-5 = test system: SK-MEL-5
# EKVX = test system: EKVX
# DMS-273 = test system: DMS-273
# M14 = test system: M14
# OVCAR-4 = test system: OVCAR-4
# HOP-18 = test system: HOP-18
# SF-268 = test system: SF-268
# NCI-H23 = test system: NCI-H23
# SW-620 = test system: SW-620
# HCC 2998 = test system: HCC 2998
# HOP-92 = test system: HOP-92
# SK-OV-3 = test system: SK-OV-3
# MOLT-4 = test system: MOLT-4
# HT-29 = test system: HT-29
# COLO 205 = test system: COLO 205
# A498 = test system: A498
# SK-MEL-28 = test system: SK-MEL-28
# LOX IMVI = test system: LOX IMVI
# UO-31 = test system: UO-31
# SF-295 = test system: SF-295
# M19-MEL = test system: M19-MEL
# TK-10 = test system: TK-10
# SN12C = test system: SN12C
# RXF 393 = test system: RXF 393
# ACHN = test system: ACHN
# K562 = test system: K562
# U-251 = test system: U-251
# CCRF-CEM = test system: CCRF-CEM
# KM12 = test system: KM12
# UACC-257 = test system: UACC-257
# CAKI-1 = test system: CAKI-1
# SK-MEL-2 = test system: SK-MEL-2
# SNB-75 = test system: SNB-75
# NCI-H522 = test system: NCI-H522
# SNB-19 = test system: SNB-19
# IGROV-1 = test system: IGROV-1
# Malme-3M = test system: Malme-3M
# SNB-78 = test system: SNB-78
# 786-0 = test system: 786-0
# NCI-H226 = test system: NCI-H226
# XF498 = test system: XF498
# DMS-114 = test system: DMS-114
# RXF 631 = test system: RXF 631
# A549 = test system: A549
# SF-539 = test system: SF-539
# KM-20L2 = test system: KM-20L2
# LXFL 529 = test system: LXFL 529
# OVCAR-5 = test system: OVCAR-5
# UACC-62 = test system: UACC-62
# HCT-116 = test system: HCT-116
# HOP-62 = test system: HOP-62
# NCI-H460 = test system: NCI-H460
structure (smiles),measurement,setting,value
CCCCCCC(=O)C/C(CCC(=O)N(Cc1ccccc1)Cc1ccccc1)=N\NC(N)=O,GI50,SR,> 100 µM (inactive)
same,GI50,OVCAR-8,> 100 µM (inactive)
same,GI50,OVCAR-3,> 100 µM (inactive)
same,GI50,RPMI-8226,> 100 µM (inactive)
same,GI50,HL-60,> 100 µM (inactive)
same,GI50,HCT-15,> 100 µM
same,GI50,SK-MEL-5,> 100 µM (inactive)
same,GI50,EKVX,> 100 µM (inactive)
same,GI50,DMS-273,> 100 µM (inactive)
same,GI50,M14,> 100 µM (inactive)
same,GI50,OVCAR-4,> 100 µM (inactive)
same,GI50,HOP-18,> 100 µM (inactive)
same,GI50,SF-268,> 100 µM (inactive)
same,GI50,NCI-H23,> 100 µM (inactive)
same,GI50,SW-620,> 100 µM (inactive)
same,GI50,HCC 2998,> 100 µM (inactive)
same,GI50,HOP-92,> 100 µM (inactive)
same,GI50,SK-OV-3,> 100 µM (inactive)
same,GI50,MOLT-4,> 100 µM (inactive)
same,GI50,HT-29,> 100 µM (inactive)
same,GI50,COLO 205,> 100 µM (inactive)
same,GI50,A498,> 100 µM (inactive)
same,GI50,SK-MEL-28,> 100 µM (inactive)
same,GI50,LOX IMVI,> 100 µM (inactive)
same,GI50,UO-31,> 100 µM (inactive)
same,GI50,SF-295,> 100 µM (inactive)
same,GI50,M19-MEL,> 100 µM (inactive)
same,GI50,TK-10,> 100 µM (inactive)
same,GI50,SN12C,> 100 µM (inactive)
same,GI50,RXF 393,> 100 µM (inactive)
same,GI50,ACHN,> 100 µM (inactive)
same,GI50,K562,> 100 µM (inactive)
same,GI50,U-251,> 100 µM (inactive)
same,GI50,CCRF-CEM,> 100 µM (inactive)
same,GI50,KM12,> 100 µM (inactive)
same,GI50,UACC-257,> 100 µM (inactive)
same,GI50,CAKI-1,> 100 µM (inactive)
same,GI50,SK-MEL-2,> 100 µM (inactive)
same,GI50,SNB-75,> 100 µM (inactive)
same,GI50,NCI-H522,> 100 µM (inactive)
same,GI50,SNB-19,> 100 µM (inactive)
same,GI50,IGROV-1,> 100 µM (inactive)
same,GI50,Malme-3M,> 100 µM (inactive)
same,GI50,SNB-78,> 100 µM (inactive)
same,GI50,786-0,> 100 µM (inactive)
same,GI50,NCI-H226,> 100 µM (inactive)
same,GI50,XF498,> 100 µM (inactive)
same,GI50,DMS-114,> 100 µM (inactive)
same,GI50,RXF 631,> 100 µM (inactive)
same,GI50,A549,> 100 µM (inactive)
same,GI50,SF-539,> 100 µM (inactive)
same,GI50,KM-20L2,> 100 µM (inactive)
same,GI50,LXFL 529,> 100 µM (inactive)
same,GI50,OVCAR-5,> 100 µM (inactive)
same,GI50,UACC-62,> 100 µM (inactive)
same,GI50,HCT-116,> 100 µM (inactive)
same,GI50,HOP-62,> 100 µM (inactive)
same,GI50,NCI-H460,> 100 µM (inactive)
